Measured values published in patent publication US11786476B2, “Oral dosage form” (Universiteit Gent, priority 2016, dated 2023).
Structures can show the parent of a compound that is named as a salt.

Legend:
[1] = Powder characteristics of raw materials (particle size and geometry); type: physicochemical; settings: raw material powder; for D90: 90% of particles smaller than this diameter
[2] = literature values; cited from earlier work

**Q.** Which results are given for CC(=O)Nc1ccc(O)cc1 [Acetaminophen, acetaminophen]?
**A.** D10 [1]: 1.7 μm; D50 [1]: 6.4 μm; Sphericity [1]: 0.84; D90 [1]: 20.1 μm

**Q.** Which D10 [1] does the source give for CN(C)C(=N)N=C(N)N [Metformin · HCl, metformin hydrochloride] here?
**A.** 8.4 μm

**Q.** And the D50 [1]?
**A.** 51.6 μm

**Q.** What about the Sphericity [1] of the same compound?
**A.** 0.87

**Q.** And the D90 [1]?
**A.** 150.2 μm

**Q.** With COc1cccc(C2(O)CCCCC2CN(C)C)c1 (stereo not drawn) [tramadol] as the compound, how does the aqueous solubility [2] read?
**A.** 30 to 100 mg/mL
